Measured values as given in patent US7384959B2, “Treatment of convulsive states” (priority 1999, dated 2008).
Marks after values point to notes of the source that are not given here.

Experiments:
rat [1] = assay: Pentylenetetrazole (PTZ) Seizure Test; type: in vivo; details: for anticonvulsant activity in the PTZ Seizure Test: animal model, delivered subcutaneously
Description: (§1) The following Tables report the results of the Irwin, PTZ and barbital interaction (sleep induction) tests. Description of these tests may be found in Psychopharmacologica, 13:222-257 (1968), Krall et al, Epilepsia 19:409-428 (1978), and Simon et al, J. Pharmacol, Paris 13:241-252 (1982). See also Roux et al, Phoenix international Pharmacology Reports Nos. D30.2061/2 and D99.021/2.
Table 2a reports mean results based on animals showing the symptoms (minimum=3 animals). Table 2b reports results observed during 60 minutes. In these Tables: Student's t Test: NS=Not Significant; *=p<0.05; ** p<0.01; ***=p<0.001 Fisher's Exact Test: No indication=Not Significant; **=p<0.01; ***=p<0.001

[2] = cited from earlier work
rat [3] = assay: Irwin Observation Test in the rat, subcutaneous route; type: in vivo; design: key to Mydriasis / Hyperthermia / Excitation: +=slight; ++=moderate
Description: as §1
In Table 1, the following apply: +=slight; ++=moderate
(X/N) indicates the number of rats showing the symptoms.
Observations were performed at 15, 30, 60, 120, 180 minutes and 24 hours after administration.
Hyperthermia and mydriasis were evaluated by comparison of the mean scores obtained in treated and control animals.

[4] = tested on: attention-deficit hyperactivity disorder (ADHD); details: Patrick et al 1987; cited from earlier work
[5] = target: T1, cytochrome P450 sub-type 1A2 (Homo sapiens, UniProt P05177); assay: effect on cytochrome P450 activity; type: in vitro ADME
T1 sequence (P05177 1-516): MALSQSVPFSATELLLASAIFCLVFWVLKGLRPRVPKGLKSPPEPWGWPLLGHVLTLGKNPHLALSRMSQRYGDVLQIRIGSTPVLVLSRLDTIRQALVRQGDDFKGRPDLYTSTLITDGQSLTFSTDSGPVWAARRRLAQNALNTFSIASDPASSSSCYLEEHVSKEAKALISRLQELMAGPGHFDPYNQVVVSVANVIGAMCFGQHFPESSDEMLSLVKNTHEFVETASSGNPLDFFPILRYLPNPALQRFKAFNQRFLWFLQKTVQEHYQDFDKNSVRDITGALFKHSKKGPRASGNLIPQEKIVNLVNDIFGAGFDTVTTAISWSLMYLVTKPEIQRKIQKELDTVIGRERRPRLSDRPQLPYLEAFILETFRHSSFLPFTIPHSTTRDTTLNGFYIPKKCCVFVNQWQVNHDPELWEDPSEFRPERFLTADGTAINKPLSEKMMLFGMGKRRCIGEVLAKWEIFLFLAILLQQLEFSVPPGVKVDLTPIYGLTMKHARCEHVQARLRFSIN
Experimental: (§2) At very high doses, some inhibition of cytochrome P450 sub-types C8/9, 2C18/19 and 2D6 was found, but the concentrations required to inhibit enzyme activities (100 μM) were much greater than the maximum concentrations likely to be found in vivo and are therefore not likely to be clinically relevant.

[6] = target: cytochrome P450 sub-type 2E1 (Homo sapiens, UniProt P05181); assay: effect on cytochrome P450 activity; type: in vitro ADME
cytochrome P450 sub-type 2E1, sequence (P05181 whole entry): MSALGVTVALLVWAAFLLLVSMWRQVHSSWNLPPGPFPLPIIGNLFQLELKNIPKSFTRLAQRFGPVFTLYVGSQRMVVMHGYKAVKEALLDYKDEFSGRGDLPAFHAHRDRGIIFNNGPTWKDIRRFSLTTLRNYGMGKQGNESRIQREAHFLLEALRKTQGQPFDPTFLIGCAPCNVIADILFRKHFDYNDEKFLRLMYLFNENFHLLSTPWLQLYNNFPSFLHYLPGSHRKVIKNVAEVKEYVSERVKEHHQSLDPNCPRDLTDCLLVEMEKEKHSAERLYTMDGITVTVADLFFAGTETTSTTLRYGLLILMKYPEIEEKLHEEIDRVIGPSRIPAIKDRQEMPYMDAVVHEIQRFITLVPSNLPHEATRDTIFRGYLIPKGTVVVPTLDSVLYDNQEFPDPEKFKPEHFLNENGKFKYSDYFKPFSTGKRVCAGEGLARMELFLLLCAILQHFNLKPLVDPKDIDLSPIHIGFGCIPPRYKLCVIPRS
Experimental: as §2

[7] = target: cytochrome P450 sub-type 3A4 (Homo sapiens, UniProt P08684); assay: effect on cytochrome P450 activity; type: in vitro ADME
cytochrome P450 sub-type 3A4, sequence (P08684 whole entry): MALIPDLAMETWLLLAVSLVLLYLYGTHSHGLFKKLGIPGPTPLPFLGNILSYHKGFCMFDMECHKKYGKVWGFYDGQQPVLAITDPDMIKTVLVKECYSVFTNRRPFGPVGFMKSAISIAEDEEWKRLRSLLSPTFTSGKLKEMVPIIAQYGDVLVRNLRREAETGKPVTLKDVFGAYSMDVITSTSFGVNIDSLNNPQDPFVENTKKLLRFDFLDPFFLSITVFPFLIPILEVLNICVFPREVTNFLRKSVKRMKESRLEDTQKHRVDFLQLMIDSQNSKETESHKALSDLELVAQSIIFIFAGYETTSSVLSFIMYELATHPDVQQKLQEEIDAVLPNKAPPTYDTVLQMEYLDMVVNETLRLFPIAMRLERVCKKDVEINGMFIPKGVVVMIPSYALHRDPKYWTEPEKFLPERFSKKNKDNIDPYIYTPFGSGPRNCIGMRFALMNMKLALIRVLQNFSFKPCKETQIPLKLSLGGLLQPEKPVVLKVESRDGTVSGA
Experimental: as §2

[8] = tested on: cytochrome P450 sub-type C8/9; assay: effect on cytochrome P450 activity; type: in vitro ADME; details: some inhibition at very high doses
Experimental: as §2

[9] = 32 mg/kg s.c. −30 min, observed during 60 minutes

## COC(=O)[C@@H](c1ccccc1)[C@@H]1CCCCN1 [l-MPH, l-threo-Methylphenidate]
Rat [1]; 32 mg/kg s.c. −30 min, 10 rats per group, observed during 60 minutes
  NUMBER OF TONIC CONVULSIONS number of rats: 3++
Rat [1]; [9]
  NUMBER OF CLONIC CONVULSIONS % antagonism: 0%
  NUMBER OF DEATHS % antagonism: 70%
  NUMBER OF TONIC CONVULSIONS % antagonism: 70%
Rat [1]; 32 mg/kg s.c. −30 min, rat
  LATENCY TO CLONIC CONVULSIONS % change from control: +226%
  LATENCY TO CLONIC CONVULSIONS mean ± s.e.m.: 1782.0 ± 161.7*** sec
  LATENCY TO DEATHS % change from control: +150%
  LATENCY TO DEATHS mean ± sem.: 3260.0 ± 121.7*** sec
  LATENCY TO TONIC CONVULSIONS % change from control: +162%
  LATENCY TO TONIC CONVULSIONS mean ± sem.: 3070.0 ± 164.6*** sec
Rat [1]
  anticonvulsant activity in the PTZ Seizure Test: has anticonvulsant potential
Rat [1]; listed as l-enantiomer
  anticonvulsant activity in the PTZ Seizure Test: possess anticonvulsant activity
[2]
  systemic availability following oral dosing: very little l-MPH enters the circulation or becomes available to the brain
Rat [3]; 2 mg/kg s.c., rat
  Irwin test observation (cell wraps: No change): No
Rat [3]; 4 mg/kg s.c., at 30′
  Mydriasis: Mydriasis +
Rat [3]; 8 mg/kg s.c., at 30′
  Excitation: Excitation +
  Excitation, number of rats showing the symptoms (X/N): (2/3) at 30′
  Mydriasis: Mydriasis +
  Stereotypies (sniffing), number of rats showing the symptoms (X/N): (1/3) at 30′
Rat [3]; 16 mg/kg s.c., 30′ → 120′
  Stereotypies (sniffing), number of rats showing the symptoms (X/N): (3/3) 30′ → 120′
Rat [3]; 16 mg/kg s.c., 60′ → 120′
  Excitation: Excitation +
  Excitation, number of rats showing the symptoms (X/N): (2/3) 60′ → 120′
  Stereotypies (head movements), number of rats showing the symptoms (X/N): (1/3) 60′ → 120′
Rat [3]; 16 mg/kg s.c., at 30′
  Mydriasis: Mydriasis + at 30′
Rat [3]; 32 mg/kg s.c., 15′ → 30′
  Excitation: Excitation +
  Excitation, number of rats showing the symptoms (X/N): (3/3) 15′ → 30′
  ↑ Reactivity to touch, number of rats showing the symptoms (X/N): (3/3) 15′ → 30′
Rat [3]; 32 mg/kg s.c., 15′ → 120′
  Mydriasis: (++ 15′ →
  Stereotypies (sniffing), number of rats showing the symptoms (X/N): (3/3)
  ↑ Fear, number of rats showing the symptoms (X/N): (3/3)
Rat [3]; 32 mg/kg s.c., at 30′ and 120′
  Hyperthermia: Hyperthermia +
Rat [3]; 32 mg/kg s.c., at 180′
  Mydriasis: (+ at 180′)
Rat [3]; 64, 128 and 256 mg/kg, s.c., rat
  Irwin test observations at higher doses: all rats exhibited further characteristics including sedation, fore-paw treading, stereotypes (head movements) and decreased muscle tone
Rat [3]; at doses having anti-convulsant effects
  signs of stimulation in the Irwin profile: Slight signs of stimulation were noted
Rat [3]; at the doses used in the PTZ test
  sedation in the Irwin profile: sedation was not noted
[4]
  pharmacological action in the treatment of ADHD: no action on the part of the l-enantiomer (l-MPH) has been detected
[5]
  effect on activity of cytochrome P450 sub-type 1A2: little or no effect
[6]
  effect on activity of cytochrome P450 sub-type 2E1: little or no effect
[7]
  effect on activity of cytochrome P450 sub-type 3A4: little or no effect
[8]
  concentration required to inhibit enzyme activity, cytochrome P450 sub-type C8/9: 100 µM
